From ChEMBL document CHEMBL1201862, “PubChem BioAssay data set” (2004)
Activity calls are given as the source filed them.

Tests used:
Aminopeptidase N = molecular target: T1, Aminopeptidase N (Plasmodium falciparum FcB1/Columbia, UniProt O96935); assay: P. falciparum M1AAP inhibitors, biochemical, fluorogenic H-Leu-NHMec substrate, 1536-well (AID 1445); parameters: species or system Plasmodium falciparum 3D7, 3D7
T1 sequence (O96935 whole entry): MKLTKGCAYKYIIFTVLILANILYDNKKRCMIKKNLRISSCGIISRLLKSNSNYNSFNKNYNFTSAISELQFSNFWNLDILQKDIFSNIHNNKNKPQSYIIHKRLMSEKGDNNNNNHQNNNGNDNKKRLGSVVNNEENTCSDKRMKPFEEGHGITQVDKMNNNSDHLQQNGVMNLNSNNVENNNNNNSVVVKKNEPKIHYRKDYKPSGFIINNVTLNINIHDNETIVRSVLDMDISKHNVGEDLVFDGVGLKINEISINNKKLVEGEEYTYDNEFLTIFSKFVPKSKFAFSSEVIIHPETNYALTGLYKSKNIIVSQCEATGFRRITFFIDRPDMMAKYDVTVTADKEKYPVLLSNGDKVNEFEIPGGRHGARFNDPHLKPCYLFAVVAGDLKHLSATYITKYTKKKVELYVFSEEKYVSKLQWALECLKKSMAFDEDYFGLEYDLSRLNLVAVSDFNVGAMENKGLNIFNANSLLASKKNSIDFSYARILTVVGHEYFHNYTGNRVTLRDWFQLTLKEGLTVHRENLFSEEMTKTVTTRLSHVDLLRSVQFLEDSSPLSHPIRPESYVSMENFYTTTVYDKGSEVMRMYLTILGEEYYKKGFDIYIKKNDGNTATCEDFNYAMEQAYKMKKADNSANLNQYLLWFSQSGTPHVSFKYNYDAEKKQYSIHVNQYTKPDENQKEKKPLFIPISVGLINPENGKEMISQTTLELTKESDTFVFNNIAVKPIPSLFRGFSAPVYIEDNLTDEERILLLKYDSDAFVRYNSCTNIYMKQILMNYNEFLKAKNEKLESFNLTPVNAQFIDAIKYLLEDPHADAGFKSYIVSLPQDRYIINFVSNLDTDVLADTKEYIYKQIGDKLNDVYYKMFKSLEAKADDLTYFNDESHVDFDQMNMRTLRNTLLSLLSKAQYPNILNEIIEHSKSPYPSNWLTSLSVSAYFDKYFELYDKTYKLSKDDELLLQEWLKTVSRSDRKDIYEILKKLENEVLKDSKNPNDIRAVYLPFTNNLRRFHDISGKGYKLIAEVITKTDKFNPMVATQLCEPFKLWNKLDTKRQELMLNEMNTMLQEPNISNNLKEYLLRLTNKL

Prothrombin = Prothrombin (Homo sapiens, UniProt P00734); assay: Thrombin 1536 HTS Dose Response Confirmation. [Related pubchem assays: 1046 (Thrombin 1536 HTS; hits were confirmed in this assay)]; format: functional
Aspartyl aminopeptidase = molecular target: T2, Aspartyl aminopeptidase (Plasmodium falciparum 3D7, UniProt Q8I2J3); assay: Counterscreen for inhibitors of M1 and M17 aminopeptidases: QFRET-based biochemical high throughput dose response assay for inhibitors of the Plasmodium falciparum M18 Aspartyl Aminopeptidase (PFM18AAP). [Related PubChem assays: 1619 (Screening assay (M17LAP inhibitors).), 1445 (Screening assay (M1AAP inhibitors).)]
T2 sequence (Q8I2J3 whole entry): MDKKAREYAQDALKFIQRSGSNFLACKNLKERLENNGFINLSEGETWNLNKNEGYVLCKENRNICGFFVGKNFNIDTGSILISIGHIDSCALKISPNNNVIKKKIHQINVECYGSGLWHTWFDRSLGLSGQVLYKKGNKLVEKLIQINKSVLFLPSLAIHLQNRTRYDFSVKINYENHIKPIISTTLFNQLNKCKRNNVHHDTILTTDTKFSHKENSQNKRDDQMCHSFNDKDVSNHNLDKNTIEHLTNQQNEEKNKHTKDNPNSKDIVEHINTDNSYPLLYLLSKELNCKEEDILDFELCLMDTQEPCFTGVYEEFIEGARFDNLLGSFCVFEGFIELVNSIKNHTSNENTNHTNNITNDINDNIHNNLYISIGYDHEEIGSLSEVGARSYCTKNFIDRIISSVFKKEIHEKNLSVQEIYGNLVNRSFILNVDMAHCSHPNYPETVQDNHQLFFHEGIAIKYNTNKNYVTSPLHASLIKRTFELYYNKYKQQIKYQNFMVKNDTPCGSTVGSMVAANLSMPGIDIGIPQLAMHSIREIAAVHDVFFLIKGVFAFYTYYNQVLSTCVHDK

Procathepsin L = Procathepsin L (Homo sapiens, UniProt P07711); assay: cathepsin L inhibitors, dose response, counter-screen for M1/M17 aminopeptidase inhibitor project, biochemical, QFRET, 1536-well (AID 2214)
Bcl-2-related protein A1 = molecular target: T3, Bcl-2-related protein A1 (Mus musculus, UniProt Q07440); format: functional;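 further: confirmatory dose–response counterscreen on Bfl-1, used to check hits from a UBC13 polyubiquitin inhibitor campaign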
T3 sequence (Q07440 whole entry): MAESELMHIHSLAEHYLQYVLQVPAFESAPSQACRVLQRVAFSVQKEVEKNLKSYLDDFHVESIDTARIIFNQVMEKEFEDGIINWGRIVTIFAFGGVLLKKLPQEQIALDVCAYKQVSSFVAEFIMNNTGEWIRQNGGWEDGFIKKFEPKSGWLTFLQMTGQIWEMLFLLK

[1] = molecular target: T4, Ubiquitin-conjugating enzyme E2 N (Homo sapiens, UniProt P61088); format: functional
T4 sequence (P61088 whole entry): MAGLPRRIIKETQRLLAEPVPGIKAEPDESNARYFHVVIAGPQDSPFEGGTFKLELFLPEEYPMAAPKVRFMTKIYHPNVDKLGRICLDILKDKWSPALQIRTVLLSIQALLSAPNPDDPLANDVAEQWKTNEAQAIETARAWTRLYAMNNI

[2] = molecular target: T4, Ubiquitin-conjugating enzyme E2 N; format: functional; remark: listed apart in the source
[3] = molecular target: Mitogen-activated protein kinase 10 (Homo sapiens, UniProt P53779); assay: Dose response biochemical screening assay for inhibitors of c-Jun N-Terminal Kinase 3 (JNK3). [Related pubchem assays: 746 ]
[4] = ZM109 Env clade C HIV-1 fusion inhibitors, dose response, HeLa effector, CEM target cells, luciferase, cherry-pick (AID 652058); format: functional, cell-based
[5] = inhibitors of clade B AD8 Env fusion, dose response, cell-based, cherry-pick (AID 652062); format: functional;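 further: luciferase signal from cell-cell fusion driven by HIV-1 clade B AD8 Env; potency is for inhibitors of fusion seen as a drop in luminescence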

Mitogen-activated protein kinase 10, sequence (P53779 whole entry, the tested form may be a part): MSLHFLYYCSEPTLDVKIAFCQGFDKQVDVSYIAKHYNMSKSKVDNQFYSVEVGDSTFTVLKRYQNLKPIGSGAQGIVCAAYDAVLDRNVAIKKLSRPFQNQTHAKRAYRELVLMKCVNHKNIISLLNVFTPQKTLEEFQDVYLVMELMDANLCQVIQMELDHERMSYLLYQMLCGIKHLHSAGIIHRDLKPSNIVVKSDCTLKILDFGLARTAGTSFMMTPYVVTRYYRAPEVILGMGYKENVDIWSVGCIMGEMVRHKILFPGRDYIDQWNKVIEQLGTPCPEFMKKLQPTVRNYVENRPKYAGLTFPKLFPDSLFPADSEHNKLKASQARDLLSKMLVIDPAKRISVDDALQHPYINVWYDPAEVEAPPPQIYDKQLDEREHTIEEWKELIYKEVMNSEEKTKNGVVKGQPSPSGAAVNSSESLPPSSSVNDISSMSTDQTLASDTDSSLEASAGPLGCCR
Procathepsin L, sequence (P07711 whole entry): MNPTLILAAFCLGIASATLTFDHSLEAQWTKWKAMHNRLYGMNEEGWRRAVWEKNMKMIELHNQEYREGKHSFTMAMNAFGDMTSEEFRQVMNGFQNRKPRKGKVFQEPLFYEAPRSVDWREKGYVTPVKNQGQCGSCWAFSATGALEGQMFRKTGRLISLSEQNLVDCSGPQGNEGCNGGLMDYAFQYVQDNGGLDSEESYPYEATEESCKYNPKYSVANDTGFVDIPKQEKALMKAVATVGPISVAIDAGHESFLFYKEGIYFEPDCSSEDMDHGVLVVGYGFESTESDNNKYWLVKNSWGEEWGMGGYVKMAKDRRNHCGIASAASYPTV

COc1ccccc1C1C=C(c2ccc(Cl)cc2)Nc2nc(N3C(=O)CCC3=O)nn21 (configuration not stated)
IC50 (Aminopeptidase N): 31.3 µM (active)
IC50 (Prothrombin): 5.84 µM (active)

Clc1ccc2oc(-c3ccccc3)cc(=NCCCN3CCOCC3)c2c1
IC50 (Prothrombin): 24.2 µM (active)

CC(=O)N1NC(=C2C(=O)N(C)C(=O)N(C)C2=O)CC1c1ccccc1 (configuration not stated)
IC50 (Aspartyl aminopeptidase): > 73.5 µM (not active)
IC50 (Aminopeptidase N): 16 µM (active)
IC50 (Procathepsin L): > 59.6 µM (not active)
IC50 (Bcl-2-related protein A1): > 20 µM (inactive)
IC50 [1]: 12.5 µM (active)
IC50 [2]: 19.5 µM (active)

N#Cc1c(NCc2ccccc2)ccnc1NCc1cccnc1
IC50 [3]: 3.96 µM (active)
AC50 [4]: 0.861 µM (active)
AC50 [5]: 5.44 µM (active)
